From patent publication US10738031B2, “N-[(heteroaryloxy)propanyl]heteroaryl carboxamides as antagonists of orexin subtype 1 receptor activity” (Boehringer Ingelheim International GmbH, priority 2016, dated 2020)

Experiments:
[1] = target: T1, human Orexin 1 receptor (Homo sapiens, UniProt O43613); assay: Assay A: OX1R IP1 (in vitro OX1R potency); assay type: cell-based; conditions: for Kb: Table 3
T1 construct: stably expressing the full-length human Orexin 1 receptor; expressed in transfected cells; host or cells: CHO-K1 (CHO-K1/hOX1), co-expressing aequorin
T1 sequence (O43613 1-425): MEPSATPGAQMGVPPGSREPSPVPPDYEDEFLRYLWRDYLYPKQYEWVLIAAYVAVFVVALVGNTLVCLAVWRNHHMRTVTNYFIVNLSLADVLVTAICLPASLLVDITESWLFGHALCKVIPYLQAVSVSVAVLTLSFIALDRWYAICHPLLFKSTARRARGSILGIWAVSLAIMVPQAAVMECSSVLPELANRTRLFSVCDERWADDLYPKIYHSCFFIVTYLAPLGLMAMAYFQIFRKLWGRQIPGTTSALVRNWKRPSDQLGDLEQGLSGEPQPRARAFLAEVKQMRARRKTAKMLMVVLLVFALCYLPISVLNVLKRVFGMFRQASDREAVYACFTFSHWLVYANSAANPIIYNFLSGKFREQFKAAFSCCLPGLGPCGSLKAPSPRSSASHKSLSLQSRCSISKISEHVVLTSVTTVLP

[2] = target: T2, OX1R (Homo sapiens, UniProt O43613); assay: OX1R potency as described in WO2016/034882; conditions: Table 3 of WO2016/034882; read-out: OX1R IC50 (corresponds to pIC50) (converted)
T2 sequence (O43613 1-425): T1 sequence (O43613 1-425)

[3] = target: T3, OX2R (Homo sapiens, UniProt O43614); assay: OX2R potency as described in WO2016/034882; conditions: Table 3 of WO2016/034882; read-out: OX2R IC50 (corresponds to pIC50) (converted)
T3 sequence (O43614 1-444): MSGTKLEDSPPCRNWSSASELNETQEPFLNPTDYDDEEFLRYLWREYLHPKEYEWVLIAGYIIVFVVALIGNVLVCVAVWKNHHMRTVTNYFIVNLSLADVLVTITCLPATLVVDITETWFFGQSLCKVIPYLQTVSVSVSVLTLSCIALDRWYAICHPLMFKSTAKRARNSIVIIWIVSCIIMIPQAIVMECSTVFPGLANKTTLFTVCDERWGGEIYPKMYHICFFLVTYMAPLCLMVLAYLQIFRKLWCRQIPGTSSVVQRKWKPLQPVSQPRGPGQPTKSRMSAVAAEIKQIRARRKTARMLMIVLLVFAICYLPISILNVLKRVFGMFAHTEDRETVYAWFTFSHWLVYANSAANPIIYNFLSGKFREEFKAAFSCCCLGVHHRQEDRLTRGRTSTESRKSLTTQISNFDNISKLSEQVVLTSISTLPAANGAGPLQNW

[4] = target: T4, human orexin 2 receptor (Homo sapiens, UniProt O43614); assay: Assay B: OX2R IP1 (in vitro OX2R potency); assay type: cell-based; conditions: Table 3; 0.5 nM Orexin A concentration
T4 construct: stably expressing the full-length human orexin 2 receptor; expressed in transfected cells; host or cells: CHO-K1 (CHO-K1/hOX2), co-expressing aequorin
T4 sequence (O43614 1-444): T3 sequence (O43614 1-444)
Excerpt: Activation of the orexin receptors expressed in cell lines results in an increase in intracellular IP3 concentration. IP1, a downstream metabolite of IP3, accumulates in cells following receptor activation and is stable in the presence of LiCl. Using Homogeneous Time-Resolved Fluorescence technology with Lumi4-Tb cryptate (commercially available from Cisbio Bioassay.) and a suitable fluorescence plate reader. This functional response is detectable and quantifiable as described in Trinquet et al. Anal. […] Curr. Chem. Genomics 2009, 3, 22-32. This technique is used to characterize pharmacological modification of the orexin receptors. B. In Vitro Testing of OX2R Potency: OX2R IP1 IP1 measurements are performed in CHO-K1 cells stably expressing the full-length human orexin 2 receptor and the aequorin photoprotein. Cells are cultivated in Ham's nutrient mixture F12 medium with 10% fetal calf serum, in a 37° C., 95% humidity and 5% CO2 incubator. The CHO-K1/hOX2 cell mass is expanded to larger cell numbers. The cells are obtained as frozen cells in cryo-vials and stored until use at -150° C. The viability of the cells after thawing is >90%. In preparation for the assay, 24 hours before the assay, the cells are thawed at 37° C. and immediately diluted with cell culture medium. After centrifugation, the cell pellet is resuspended in medium and then distributed into the assay plates with a density of 5000 cells/25 μL per well. The plates are incubated for one hour at room temperature to reduce edge effects before they are incubated for 24 hours at 37° C./5% CO2. […] On the day of the assay, cells in the plate are washed twice with 60 μL assay buffer (20 μL buffer remained in the wells after washing), followed by adding 5 μL per well of compounds diluted in assay buffer. […] The assay plate is incubated for 60 minutes at 37° C. Then 5 μL per well of Anti-IP1-Cryptate Tb solution and 5 μL per well of IP1-d2 dilution are added to all well of the plate and the plate is incubated for a further 60 minutes light protected at room temperature. […] The ratio between the emission at 665 nm and 615 is calculated by the reader. […] AssayExplorer (Accelrys). In order to establish an agonist concentration independent parameter, Kb values are calculated using the following equation: […] Sci. 1993, 14(4), 110-112).

[5] = Assay C: Human MST t1/2 (stability in human liver microsomes); assay type: in vitro ADME; conditions: for half-life: human liver microsomes

SMILES	OX2R Kb/OX1R Kb [1]	Kb ([1]; Orexin A concentration 50 nM) [µM]	IC50 [2] [µM]	IC50 [3] [µM]	Kb ([1]; Orexin A concentration 0.5 nM) [µM]	Kb [4] [µM]	half-life [5] [min]	stability in human liver microsomes (in words) ([5]; compared with closest prior art compounds in WO2016/034882)
CC[C@@H](CNc1cnc(C(F)(F)F)cn1)N(CC)C(=O)c1nc(C)ccc1-n1nccn1 [Ex 70 in WO2016/ 034882]	319	0.000135	0.0016	> 5	–	–	–	–
CCN(C(=O)c1ncc(F)cc1-c1ccn(C)n1)[C@@H](C)COc1ccc(C(F)(F)F)cn1 [Example 37]	243	–	–	–	0.0033	0.802	24	–
CCN(C(=O)c1cc(OC)ncc1-c1ccn(C)n1)[C@@H](C)COc1ccc(C(F)(F)F)cn1 [Example 38]	135	–	–	–	0.0024	0.323	12	–
CCN(C(=O)c1ccncc1-n1cccn1)[C@@H](C)COc1ccc(C(F)(F)F)cn1 [Example 40]	120	–	–	–	0.013	1.56	10	–
CCN(C(=O)c1cnccc1-n1nccn1)[C@@H](C)COc1ncc(C(F)(F)F)cc1F [Example 42]	210	–	–	–	0.0023	0.483	13	–
CCN(C(=O)c1cc(OC)cnc1-n1nccn1)[C@@H](C)COc1ccc(Cl)cn1 [Example 43]	171	–	–	–	0.0019	0.325	110	–
CCN(C(=O)c1cccnc1-n1nccn1)[C@@H](C)COc1ncc(C(F)(F)F)cc1F [Example 44]	289	–	–	–	0.0042	1.21	> 130	–
CCN(C(=O)c1cc(F)cnc1-c1ncccn1)[C@@H](C)COc1cnc(C(F)(F)F)cn1 [Example 45]	332	–	–	–	0.02	6.65	> 130	–
CCN(C(=O)c1cnccc1-n1nccn1)[C@@H](C)COc1ccc(Cl)cn1 [Example 48]	147	–	–	–	0.0026	0.381	33	–
CCN(C(=O)c1nccc(C(F)(F)F)c1-c1ccn(C)n1)[C@@H](C)COc1ccc(C(F)(F)F)cn1 [Example 50]	236	0.00011	–	–	–	0.026	23	–
CCN(C(=O)c1cccnc1-n1nccn1)[C@@H](C)COc1ccc(Cl)cn1 [Example 51]	138	–	–	–	0.0083	1.14	> 130	–
CCN(C(=O)c1nc(C)ccc1-c1ncccn1)[C@@H](C)COc1cnc(C(F)(F)F)cn1 [Example 53]	105	–	–	–	0.0032	0.337	> 130	markedly improved stability in human liver microsomes
CCN(C(=O)c1cc(OC)cnc1-n1nccn1)[C@@H](C)COc1ncc(C(F)(F)F)cc1F [Example 54]	649	–	–	–	0.00089	0.578	> 130	–
CCN(C(=O)c1cc(OC)cnc1-n1nccn1)[C@@H](C)COc1ccc(C(F)(F)F)cn1 [Example 56]	–	0.00049	–	–	0.0005	0.26	> 130	–
CCN(C(=O)c1ncccc1-n1nccn1)[C@@H](C)COc1ncc(C(F)(F)F)cc1F [Example 57]	233	–	–	–	0.0018	0.419	56	–
CCN(C(=O)c1c(F)ccnc1-c1ccn(C)n1)[C@@H](C)COc1ccc(C(F)(F)F)cn1 [Example 58]	93	–	–	–	0.0035	0.327	41	–
CCN(C(=O)c1cc(F)cnc1-c1nnc(C)o1)[C@@H](C)COc1ccc(C(F)(F)F)cn1 [Example 59]	214	–	–	–	0.031	6.64	> 130	–
CCN(C(=O)c1ccc(C)nc1-n1nccn1)[C@@H](C)COc1ncc(C(F)(F)F)cc1F [Example 60]	–	0.00066	–	–	0.00067	0.882	> 130	–
CCN(C(=O)c1cccnc1-n1nccn1)[C@@H](C)COc1ccc(C(F)(F)F)cn1 [Example 61]	294	–	–	–	0.00231	0.678	> 130	–
CCN(C(=O)c1ncc(C)cc1-n1cccn1)[C@@H](C)COc1ccc(C(F)(F)F)cn1 [Example 64]	688	0.0004	–	–	–	0.275	20	–
CCN(C(=O)c1cnccc1-n1cccn1)[C@@H](C)COc1ccc(C(F)(F)F)cn1 [Example 69]	139	–	–	–	0.0022	0.305	13	–
CCN(C(=O)c1cc(F)cnc1-c1ncccn1)[C@@H](C)COc1ccc(C(F)(F)F)cn1 [Example 70]	691	–	–	–	0.0015	1.04	> 130	–
CCN(C(=O)c1ncccc1-n1nccn1)[C@@H](C)COc1ccc(Cl)cn1 [Example 71]	113	–	–	–	0.003	0.339	63	–
CCN(C(=O)c1cc(Cl)cnc1-n1nccn1)[C@@H](C)COc1ccc(C(F)(F)F)cn1 [Example 72]	–	0.00024	–	–	0.00037	0.25	> 130	–
